Measured values as given in patent US20260098039A1, “SOLID FORMS OF COMPOUND I OR SALTS THEREOF” (Jacobio Pharmaceuticals Co., Ltd., priority 2022, published 2026).
Values after ≈ are worked out from the molar mass of the structure shown. “Also recorded” adds a separate entry of the source.

Experiments:
[1] = molecular target: T1, PARP7 enzyme (Homo sapiens, UniProt Q7Z3E1); assay: PARP7 enzymatic HTRF assay; assay type: binding; details: 6 nM PARP7 enzyme solution, RBN011147 probe, 25° C. 3 hrs
T1 sequence (Q7Z3E1 1-657): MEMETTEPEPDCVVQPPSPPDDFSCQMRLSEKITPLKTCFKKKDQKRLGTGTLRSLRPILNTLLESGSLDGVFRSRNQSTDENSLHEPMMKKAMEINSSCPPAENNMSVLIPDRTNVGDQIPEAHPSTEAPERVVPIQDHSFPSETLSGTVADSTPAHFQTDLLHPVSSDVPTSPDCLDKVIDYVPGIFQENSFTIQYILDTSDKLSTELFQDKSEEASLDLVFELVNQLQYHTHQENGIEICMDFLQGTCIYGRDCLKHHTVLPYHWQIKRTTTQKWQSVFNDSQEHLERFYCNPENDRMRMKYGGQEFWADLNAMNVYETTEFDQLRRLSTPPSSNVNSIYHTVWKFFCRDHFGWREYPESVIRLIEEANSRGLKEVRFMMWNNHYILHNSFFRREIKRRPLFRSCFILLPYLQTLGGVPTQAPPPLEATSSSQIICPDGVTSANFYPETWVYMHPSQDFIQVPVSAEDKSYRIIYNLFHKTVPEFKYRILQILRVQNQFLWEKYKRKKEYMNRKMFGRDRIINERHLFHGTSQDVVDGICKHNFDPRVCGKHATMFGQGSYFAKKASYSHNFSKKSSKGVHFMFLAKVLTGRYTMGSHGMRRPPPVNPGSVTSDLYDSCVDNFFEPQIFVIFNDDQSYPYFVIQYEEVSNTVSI
Experimental: The PARP7 enzyme inhibitory activity of each compound was tested using HTRF (homogeneous time resolved fluorescence) assay, and the half inhibitory concentration IC50 thereof was obtained.
(1) Each compound to be tested was prepared using gradient dilution method with DMSO and water to obtain a solution with the concentration of 50 nM, 10 nM, 2 nM, 0.4 nM, and 0.08 nM. The concentration of DMSO in the solution of each compound to be tested was 2%. […]
(5) The fluorescence signal was read on SPARK plate reader (Tecan), the wavelength of the excitation spectrum of the SPARK plate reader was 320 nm, and the wavelength of the emission spectrum of the SPARK plate reader was 620 nm and 665 nm. The ratio of […] was calculated for the solution in each well. The ratio was calculated according to the following formula: Ratio=absorbance at 665 nm/absorbance at 620 nm×10^4.
(6) The activation of the compounds to be tested was calculated according to the following formula: Activation (%)=100× (ratiocompound−rationnegative)/(ratiopositive−rationegative). […]

[2] = Solid state stability of crystalline form 1; assay type: physicochemical; details: long-term, accelerated, high temperature and high humidity conditions, exposed, dark, 10 days
Experimental: The stability of crystalline Form 1 of Compound I was tested according to the following table 6.
The solid stability of crystalline form 1 of Compound I was exposure for 10 days in high humidity (25° C.±2° C., 90% RH±5% RH), high temperature (50° C.±5° C., <30% RH), long-term (25° C.±5° C., 60% RH±5%) and accelerated (40° C.±2° C., 75% RH±5%) conditions.

[3] = Equilibrium solubility of crystalline form 1; assay type: physicochemical
Experimental: The equilibrium solubility of crystalline form 1 of Compound I was tested according to the following table 7.

## Cc1c2n(c3ncc(C(F)(F)F)cc13)CCN(C(=O)CCOC[C@H](C)Oc1cn[nH]c(=O)c1C(F)(F)F)C2 [Compound I, (S)-5-((1-(3-(5-methyl-3-(trifluoromethyl)-8,9-dihydropyrido[3′,2′:4,5]pyrrolo[1,2-a]pyrazin-7(6H)-yl)-3-oxopropoxy)propan-2-yl)oxy)-4-(trifluoromethyl)pyridazin-3(2H)-one]
[1]
  IC50: 0.00158 µM

## Cc1c2n(c3ncc(C(F)(F)F)cc13)CCN(C(=O)CCOC[C@H](C)Oc1cn[nH]c(=O)c1C(F)(F)F)C2 [crystalline form 1 of Compound I, (S)-5-((1-(3-(5-methyl-3-(trifluoromethyl)-8,9-dihydropyrido[3′,2′:4,5]pyrrolo[1,2-a]pyrazin-7(6H)-yl)-3-oxopropoxy)propan-2-yl)oxy)-4-(trifluoromethyl)pyridazin-3(2H)-one]
[2]
  Polymorph (via XRPD) in solid state stability: remain unchanged; also recorded: The polymorph remained unchanged under above 4 conditions for 10
[3]; 37 °C, thermodynamic from solid, FeSSIF, via HPLC
  solubility thermodynamic: ~0.1 mg/mL (≈ 183 µM)
[3]; after 24 h in water (25° C.), SGF (37° C.), FaSSIF (37° C.), FeSSIF (37° C.)
  Polymorph (via XRPD) after equilibrium solubility test: remains unchanged
[3]; water (25° C.), SGF (37° C.), FaSSIF (37° C.), FeSSIF (37° C.)
  time to reach basic saturation: 4 h
